Consider 17 compounds from patent US8546430B2, “Thalidomide analogs” (P2D, Inc., priority 2003, dated 2013).

“Also recorded” adds a separate entry of the source.

One series has as its system rat aortic ring. The series can be described thus: Rat aortic ring microvessel growth assay. It counts as cell-based. The following applies: 0.1-20 μg/ml daily for 4 days; FIGS. 2-11. Here is the method: The angiogenesis modulating activity of representative compounds was assessed in a rat aortic ring microvessel growth assay. Briefly, twelve-well tissue culture plates were coated with 250 μl of Matrigel (Becton-Dickinson, Bedford, Mass.) and allowed to gel for 30 min at 37° C. and 5% CO2. Thoracic aortas were excised from 8- to 10-week-old male Sprague Dawley rats. After careful removal of fibroadipose tissues, the aortas were cut into 1-mm-long cross-sections, placed on Matrigel-coated wells, and covered with an additional 250 μl of Matrigel. After the second layer of Matrigel had set, the rings were covered with EGM-II and incubated overnight at 37° C. and 5% CO2. EGM-II consists of endothelial cell basal medium (EBM-II; Clonetics, San Diego, Calif.) plus endothelial cell growth factors provided as the EGM-II Bulletkit (Clonetics). The culture medium was subsequently changed to EBM-II supplemented with 2% fetal bovine serum, 0.25 μg/ml amphotericin B, and 10 μg/ml gentamicin. Aortic rings were treated daily with either the vehicle (0.5% DMSO), carboxyamidotriazole (CAI, 12 μg/ml), thalidomide or thalidomide analogs (0.1-20 μg/ml) for 4 days and photographed on the 5th day using a ×2.5 objective. CAI, a known antiangiogenic agent, was used at higher than clinically achievable concentration as a positive control. Experiments were repeated four times using aortas from four different rats. The area of angiogenic sprouting, reported in square pixels, was quantified using Adobe PhotoShop. Further details of the method are provided in Luzzio et al., J Med Chem.; 46:3793-9, 2003, which is incorporated by reference herein. It should be understood that this method can be used as an assay to rapidly select compounds having a desired angiogenic or anti-angiogenic effect, for example, for use in the disclosed methods of treating a subject.

The test system of the next series is PBMC. The series can be described thus: Cellular viability of PBMCs by MTS assay. It counts as cell-based, human. Here is the method:
(§1) The action of the these thiothalidomide analogs in inhibiting TNF-α secretion was assessed in human peripheral blood mononuclear cells (PBMC) and the results are shown in Table 1. Freshly prepared PBMCs were utilized in all studies. Blood, 40 ml, was drawn from a volunteer, immediately mixed with 50 U/ml Na heparin and was diluted to 50 ml total volume with sterile PBS. Samples, 20 ml, of this preparation then were layered on 20 ml Ficoll-Paque and were centrifuged (800 g, 20 min). The Ficoll/serum interface, containing PBMCs, was collected, diluted to 200 ml with PBS, and then was centrifuged (800 g, 15 min) to pellet the cells. Thereafter, the recovered pellet was re-suspended in 37° C. tissue culture medium (RPMI/1 mM Sodium pyruvate/10% heat inactivated FBS/2 mM Glutamax) and placed on ice. Recovered cells were counted, pipetted (200 ul of 5×10^5/ml) into 96 well plates, and incubated for an hour (37° C., 5% CO2). Thereafter, appropriate concentrations of test compounds or vehicle (10 ul DMSO) were added to duplicate wells. Following a further hour of incubation, a 10 ul sample of lipopolysaccharide (LPS) (100 ng/ml in supplemented medium) or vehicle was added to induce stimulated and unstimulated cells, respectively, and the cells were incubated overnight. Sixteen hours later, supernatants were collected for quantification of TNF-α levels by ELISA assay (Pierce-Endogen human TNF-α mini kit, Rockford, Ill.) and the use of specific capture and detection monoclonal antibodies, M303E and M302B (Pierce-Endogen), respectively. ELISA plates were read at λ=450 nm and TNF-α levels were determined from a six-point calibration curve that was run concurrently with the test samples. The effect of test drug concentrations on the cellular viability of PBMCs was assessed by MTS assay (Promega, Madison, Wis.) of the cells that provided the supernatant samples assayed for TNF-α levels, described above. It should be understood that this method can be used to test any of the disclosed compounds as a screening assay for readily determining their TNF-α modulating activity, and for selecting them for use in the disclosed method of treating a subject.
(Tetrazolium assays rely on reduction of a dye to a coloured formazan, in cell work by metabolically active cells.)

In a further series the test system is TNF-α. The series can be described thus: Inhibition of LPS-induced TNF-α secretion in human PBMC (ELISA). It counts as cell-based. The conditions noted are these: for IC50 / inhibition at 30 µM / % Inhibition at 30 μM: LPS-induced TNF-α production in PBMC; for TNF-α inhibitory activity (in words): LPS-stimulated PBMC. As to the method: as §1
(In general: ELISA stands for enzyme-linked immunosorbent assay.)

For `CC12CCC(C(=O)NC3CCC(=O)NC3=O)(OC1=O)C2(C)C` (stereo not drawn) [3-Camphanic amino-2,6-piperidinedione], the “Angiogenic modulating activity (in words)” value in the series on rat aortic ring is listed as “potent angiogenic activity at all concentrations tested; also recorded: exhibited angiogenic activity”.
Take `COc1ccc(N2C(=O)c3ccccc3C2=O)c(OC)n1` [Compound 5, 1,3-Dioxo-2-(2,6-dimethoxypyridin-3-yl)-isoindoline]: the “Angiogenic modulating activity (in words)” value in the series with rat aortic ring is reported as “angiogenic activity at all concentrations tested”.
With `Br.COc1ccc(N2C(=O)c3ccccc3C2=O)c(O)n1` [Compound 6, 1,3-Dioxo-2-(2-hydroxy-6-methoxypyridin-3-yl)-isoindoline hydrobromide], the “Angiogenic modulating activity (in words)” value in the series on rat aortic ring is listed as “anti-angiogenic activity in the rat aortic ring assay at all concentrations tested”.
Regarding `NC(=O)c1cc2ccccc2cc1C(=O)NC1CCC(=O)NC1=O` (stereo not drawn) [Compound 14, N-(2,6-dioxopiperidin-3-yl)-2,3-naphthalenedicarboxamide], the melting point (as a rule, the temperature, or range, at which the solid turns liquid) was above 300 °C.
As for `CC(=O)Oc1ccccc1C(=O)NC1CCC(=O)NC1=O` (stereo not drawn) [Compound 24, 2-acetoxy-N-(2,6-dioxopiperidin-3-yl)benzamide], the “Angiogenic modulating activity (in words)” value in the series on rat aortic ring was “potent angiogenic activity”.
In turn, `O=C1NC(=S)CCC1N1C(=O)c2ccccc2C1=O` (stereo not drawn) [Compound 205, 2-(2-Oxo-6-thioxo-3-piperidinyl)-1H-isoindole-1,3(2H)-dione] returned a melting point of 225 to 226 °C. In addition, in the series with PBMC, the Cell viability at 0.3 μM was 96%, the Cell viability at 3 μM is 90% and the Cell viability at 30 μM is above 100%. The “Inhibition of TNF-α secretion at 30 μM (in words)” value (from here on “Inhibition of TNF-α secretion”) in the series on TNF-α was “only marginal activity”. In the series on TNF-α (Homo sapiens), the IC50 (usually the concentration that inhibits the measured activity by half) was above 30 µM and at 30 µM the inhibition was 31%. Moreover, in the series with rat aortic ring, the “Angiogenic modulating activity (in words)” value is “anti-angiogenic activity at higher concentration, and some angiogenic activity at lower concentrations”.
In the case of `COC(=O)CCC(C(=O)OC)N1C(=O)c2ccccc2C1=S` (stereo not drawn) [Compound 208, Dimethyl 2-(1,3-dihydro-1-oxo-3-thioxo-2H-isoindol-2-yl)-pentanedioate], in the series on PBMC, the “Toxicity / cytotoxicity (in words)” value is given as “without toxicity”, the Cell viability at 0.3 μM was determined as 96%, the Cell viability at 3 μM turned out to be 99% and the Cell viability at 30 μM is 93%. In the series with TNF-α (Homo sapiens), the IC50 was found to be 20 µM and the inhibition (commonly the percentage by which the read-out fell short of the control) at 30 µM amounted to 56%.
With `COC(=O)CCC(C(=O)OC)N1C(=S)c2ccccc2C1=S` (stereo not drawn) [Compound 209, Dimethyl 2-(1,3-dihydro-1,3-dithioxo-2H-isoindol-2-yl)-pentanedioate], in the series on PBMC, the “Toxicity / cytotoxicity (in words)” value is “induced cellular toxicity at lower concentrations”, the Cell viability at 0.3 μM came out at 89%, the Cell viability at 3 μM was 86% and the Cell viability at 30 μM is 57%. Moreover, in the series with TNF-α (Homo sapiens), the IC50 is 10 µM and testing at 30 µM gave an inhibition of 85%. Further, the “Fold more potent than 208” value in the series on TNF-α (TNF-α inhibitory action) came out at 2 fold.
Consider `O=C1c2ccccc2C(=NCc2ccccc2)N1Cc1ccccc1` [Compound 210, 3-Benzylimino-2-benzyl-2,3-dihydroisoindol-1-one], for which the “Angiogenic modulating activity (in words)” value in the series with rat aortic ring is recorded as “exhibited angiogenic activity”.
For `O=C1CCC(N2C(=O)c3ccccc3C2=S)C(=O)N1` (stereo not drawn) [Compound 212, 2,3-Dihydro-3-thioxo-2-(2,6-dioxo-3-piperidinyl)-1H-isoindol-1-one], the melting point is 255 °C. In the series with PBMC, this compound came in with a Cell viability at 0.3 μM of 94%, a Cell viability at 3 μM of 100% and a Cell viability at 30 μM of 94%. For the same compound, the “Inhibition of TNF-α secretion” value in the series with TNF-α is “only marginal activity”. In the series on TNF-α (Homo sapiens), this compound had an IC50 above 30 µM and an inhibition at 30 µM of 23%.
As to `O=C1CCCC(=S)N1` [Compound 218, 6-Thioxo-2-piperidinone], the melting point came to 135 °C. Besides, in the series with PBMC, the Cell viability at 0.3 μM was determined as 86%, the Cell viability at 3 μM came to 84% and the Cell viability at 30 μM was above 100%. Further, the “Inhibition of TNF-α secretion” value in the series on TNF-α is listed as “minimally inhibited TNF-α secretion”. Further, in the series with TNF-α (Homo sapiens), the IC50 was above 30 µM and testing at 30 µM gave an inhibition of 15%.
`O=C1c2ccccc2C(=O)N1C1CC=CCC1` (stereo not drawn) [Compound 221, 2-(3-Cyclohexenyl)-1H-isoindole-1,3(2H)-dione] had a melting point of 114 °C.
As for `S=C1c2ccccc2C(=S)N1C1CC=CCC1` (stereo not drawn) [Compound 222, 2-(3-Cyclohexenyl)-1H-isoindol-1,3(2H)-dithione], in the series with PBMC, the “Toxicity / cytotoxicity (in words)” value is on record as “some toxicity at 30 μM”, the Cell viability at 0.3 μM worked out at 96%, the Cell viability at 3 μM was found to be 94% and the Cell viability at 30 μM turned out to be 50%. Besides, in the series on TNF-α, 15 µM corresponded to half-maximal inhibition (IC50); the % Inhibition (in general, how much of the control response was suppressed) at 30 μM turned out to be 86%; the “TNF-α inhibitory activity (in words)” value was “active TNF-α inhibitors”. The “Angiogenic modulating activity (in words)” value in the series on rat aortic ring is “anti-angiogenic activity at higher concentrations and angiogenic activity at lower concentrations”.
As for `O=C1c2ccccc2C(=S)N1C1CC=CCC1` (stereo not drawn) [Compound 223, 2,3-dihydro-3-thioxo-2-(3-cyclohexenyl)-1H-isoindol-1-one], the melting point lay within 67 to 68 °C. In the series on PBMC, the “Toxicity / cytotoxicity (in words)” value is reported as “some toxicity at 30 μM”, the Cell viability at 0.3 μM turned out to be 99%, the Cell viability at 3 μM was determined as 89% and the Cell viability at 30 μM was 57%. Moreover, in the series on TNF-α (Homo sapiens), the IC50 was found to be 16 µM and at 30 µM the inhibition was 85%. Further, the “TNF-α inhibitory activity (in words)” value in the series with TNF-α is “active TNF-α inhibitors”.
Regarding `S=C1NC(=S)c2ccccc21` [Compound 224, dithiophthalimide], in the series on PBMC, the “Toxicity / cytotoxicity (in words)” value is given as “associated with toxicity at 30 μM”, the Cell viability at 0.3 μM came to 83%, the Cell viability at 3 μM was found to be 83% and the Cell viability at 30 μM turned out to be 54%. In the series with TNF-α (Homo sapiens), inhibition was half-maximal at 3 µM (IC50) and testing at 30 µM gave an inhibition of 95%. For the same compound, in the series on TNF-α, the “TNF-α inhibitory activity (in words)” value is “potent activity”. For the same compound, in the series with rat aortic ring, the “Angiogenic modulating activity (in words)” value is on record as “angiogenic activity at all concentrations tested”.
In the case of `Nc1ccc2c(=O)n(C3CCC(=O)NC3=O)c(=O)oc2c1` (stereo not drawn) [Compound 228, 3-[2′,6′-piperidinedion-3′-yl]-7-amino-2H-1,3-benzoxazine-2,4(3H)-dione], the EC50 (as a rule, the concentration that produces a half-maximal response) with TNF-α (Homo sapiens, PBMC, TNF-α assay of Example 11) amounted to 0.4 µM. Besides, the “TNF-α inhibitory activity (in words)” value with TNF-α is reported as “potent inhibitory action on TNF-α”.
Monothiophthalimide [Compound 225]: in the series on PBMC, the “Toxicity / cytotoxicity (in words)” value was “without toxicity”, the Cell viability at 0.3 μM stood at 94%, the Cell viability at 3 μM amounted to 94% and the Cell viability at 30 μM was above 100%. In the series with TNF-α, the “Inhibition of TNF-α secretion” value is “marginal TNF-α activity”, the half-maximal inhibitory concentration (IC50) is above 30 µM and the “% Inhibition at 30 μM” value is on record as 34%.
